The test system of one assay is STAT1. As to conditions: lipid A 1 ng/ml, poly I:C 1 μg/ml. How it is done: BMMs from both wild-type and IFNAR−/− mice were stimulated with lipid A (1 ng/ml), poly I:C (1 μg/ml), CpG (100 nM), or fresh medium (M) for the indicated time periods, as described in Example 2, infra.
(A): Cell lysates were subjected to western blotting analyses to detect phosphorylated STAT1 (P-STAT1) and total STAT1.
For STAT1 immunoblotting, cells were lysed in modified RIPA buffer and 20 μg of protein were loaded per lane and separated by SDS-PAGE. Gels were transferred to nitrocellulose filters and immunoblotted using the antibody manufacturers' recommended instructions. Antibodies specific to the STAT1 or the phosphorylated forms of STAT1 were obtained from Cell Signaling Technologies and Santa Cruz Biotechnologies, respectively. The anti-MyD88 antibody was purchased from ProSci Incorporated. For detection of MHV68, equal amounts were loaded in each lane and analyzed by western blotting techniques using rabbit anti-M9. Blots were stripped and re-probed with anti-actin (Sigma) to verify equal loading.
To address this issue we stimulated IFNAR^−/− BMMs with lipid A and poly I:C and assayed for STAT1 phosphorylation.

The test system of a further assay is MHV68. The experiment in a line: MHV68 viral replication assay in wild-type and IFNAR−/− BMMs (M9 western blot). Format: cell-based, Murine gammaherpesvirus 68. As to conditions: MOI 5, 48 h, co-treatment. How it is done:
(B) For viral replication assays, BMMs were simultaneously stimulated with PAMPs (10, 1, or 0.1 ng/ml lipid A, or 1, 0.1, or 0.01 μg/ml poly(I:C)) and infected with MHV68 using a multiplicity of infection of five. Cell lysates were harvested at 48 h postinfection and subjected to Western blotting analysis using an Ab specific to the MHV68 protein M9. Actin levels were also assayed to ensure equal loading. The data represent two independent experiments.
A129 (IFNAR-1^−/−) (Muller, U., U. Steinhoff, L. F. L. Reis, S. Hemmi, J. Pavlovic, R. M. Zinkernagel, and M. Aguet. 1994. Functional role of type I and type II interferons in antiviral defense. Science 264:1918) and B6129SF2/J wild type control mice were obtained from B&K Universal Ltd. and Jackson Laboratories, respectively. C57/B6 mice were used for all experiments not involving the A129 mice (Jackson Laboratories). Specific TLR activation was achieved using F-583 (Rd mutant) E. coli lipid A for TLR4 (Sigma), CpG oligonucleotides for TLR9 (Invitrogen) and poly I:C for TLR3 (Pharmacia). […]
Using the MHV68 protein M9 as a readout for viral load, we show in FIG. 13B that the antiviral activity of macrophage cells infected with MHV68 was abolished in the absence of IFNAR despite co-treatment with either lipid A or poly I:C. […]

Assay [1] has as its system RAW 264.7 murine macrophage cell line. Description: Apoptosis by TUNNEL assay in RAW 264.7 cells, laser scanner cytometry. Format: cell-based. As to conditions: RAW 264.7, two 24 h intervals; 10 ng/ml Lipid A or 10 mg/ml poly I:C. How it is done: The RAW 264.7 murine macrophage cell line was treated for two 24 h intervals with media alone (control), 10 ng/ml Lipid A (Lipid A) or 10 mg/ml poly I:C. In addition, as a positive control for apoptosis, another set of cells was treated with 3% H2O2 for 2 hours. Following fixation and permeablization, apoptosis was measured by the TUNNEL assay using the Death kit (Roche). Apoptotic cells are visualized by an increase in fluorescence (FITC) and detected by laser scanner cytometry (LSC). […] The cell cycle is divided into G1 (red), S-phase (yellow) and G2/M (blue). Thus, TLR3/4 activation promotes apoptosis at all stages of the cell cycle (FIG. 16).

Regarding lipid A, the “STAT1 activation in IFNAR−/− macrophage cells” value in the assay on STAT1 is given as “abolished”. Moreover, the “antiviral activity against MHV68 in the absence of IFNAR” value in the assay with MHV68 is recorded as “abolished”. Also, the “increase in apoptotic cells” value in assay [1] is 10 fold.
Turning to poly I:C, the “STAT1 activation in IFNAR−/− macrophage cells” value in the assay on STAT1 is listed as “abolished”. In the assay with MHV68, the “antiviral activity against MHV68 in the absence of IFNAR” value was “abolished”. In addition, in assay [1], the “increase in apoptotic cells” value was 100 fold.
